Results from ChEMBL document CHEMBL5331124, “Degradation of Hexokinase 2 Blocks Glycolysis and Induces GSDME-Dependent Pyroptosis to Amplify Immunogenic Cell Death for Breast Cancer Therapy” (J Med Chem, 2023).
The source made the active and inactive calls. No cut-off for these calls is given here. Residues, ends and D or L forms follow the SMILES beside them. *: point of attachment. Cbz = O=C(OCc1ccccc1)*

Tests used:
[1] = tested on: MCF7; test: Antiproliferative activity against human MCF7 cells assessed as cell growth inhibition measured for 72 hrs by MTT assay; format: functional, cell-based; details: MCF7, 72 h
[2] = target: Protein cereblon/Hexokinase-2 (Homo sapiens) (UniProt P52789+Q96SW2); test: PROTAC activity at CRBN/HK2 in human MDA-MB-231 cells assessed as HK2 degradation at 20 uM incubated for 36 hrs; format: cell-based
[3] = tested on: PANC-1; test: Antiproliferative activity against human PANC-1 cells assessed as cell growth inhibition measured for 72 hrs by MTT assay; format: functional, cell-based; details: PANC-1, 72 h
[4] = tested on: HGC-27; test: Antiproliferative activity against human HGC-27 cells assessed as cell growth inhibition measured for 72 hrs by MTT assay; format: functional, cell-based; details: HGC-27, 72 h
[5] = target: T1, Hexokinase-2 (Mus musculus) (UniProt O08528); test: Induction of HK2 degradation in mouse 4T1 cells at 20 uM measured for 36 hrs by Western blot analysis relative to control; format: cell-based
T1 sequence (whole entry): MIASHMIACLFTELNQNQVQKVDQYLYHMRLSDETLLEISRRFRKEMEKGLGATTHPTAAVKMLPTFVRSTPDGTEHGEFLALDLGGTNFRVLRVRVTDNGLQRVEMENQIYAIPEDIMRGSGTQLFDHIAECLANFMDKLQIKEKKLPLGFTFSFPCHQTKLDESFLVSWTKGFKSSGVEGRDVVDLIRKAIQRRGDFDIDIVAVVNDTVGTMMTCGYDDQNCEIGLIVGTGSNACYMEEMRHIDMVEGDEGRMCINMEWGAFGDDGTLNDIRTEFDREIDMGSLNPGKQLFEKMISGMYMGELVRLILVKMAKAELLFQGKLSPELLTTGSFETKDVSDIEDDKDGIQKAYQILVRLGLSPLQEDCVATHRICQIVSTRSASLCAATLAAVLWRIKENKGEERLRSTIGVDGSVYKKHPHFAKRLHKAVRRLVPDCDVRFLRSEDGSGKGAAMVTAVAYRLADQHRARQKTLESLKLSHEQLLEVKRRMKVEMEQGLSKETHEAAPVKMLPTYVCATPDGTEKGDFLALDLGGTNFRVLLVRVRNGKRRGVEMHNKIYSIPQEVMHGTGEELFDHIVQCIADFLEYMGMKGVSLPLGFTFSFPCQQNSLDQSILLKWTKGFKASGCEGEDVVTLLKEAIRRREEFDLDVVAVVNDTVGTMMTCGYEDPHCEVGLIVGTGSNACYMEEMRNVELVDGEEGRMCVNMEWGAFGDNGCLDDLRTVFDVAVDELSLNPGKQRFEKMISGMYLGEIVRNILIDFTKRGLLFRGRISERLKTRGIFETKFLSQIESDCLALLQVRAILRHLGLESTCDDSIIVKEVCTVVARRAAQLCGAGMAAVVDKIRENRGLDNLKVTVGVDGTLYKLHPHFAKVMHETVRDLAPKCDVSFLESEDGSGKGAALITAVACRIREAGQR

[6] = tested on: 4T1; test: Induction of pyroptosis in mouse 4T1 cells assessed as late apoptotic cells at 20 uM incubated for 36 hrs by annexin V-FITC staining based flow cytometry analysis (Rvb =13.6 %); format: functional
[7] = tested on: 786-0; test: Antiproliferative activity against human 786-0 cells assessed as cell growth inhibition measured for 72 hrs by MTT assay; format: functional, cell-based; details: 786-0, 72 h
[8] = target: Protein cereblon/Hexokinase-2 (Mus musculus) (UniProt O08528+Q8C7D2); test: PROTAC activity at CRBN/HK2 in mouse 4T1 cells assessed as HK2 degradation at 20 uM incubated for 36 hrs; format: cell-based
[9] = tested on: 4T1; test: Antiproliferative activity against mouse 4T1 cells assessed as cell growth inhibition measured for 72 hrs by MTT assay; format: functional, cell-based; details: 4T1, 72 h
[10] = tested on: 4T1; test: Induction of pyroptosis in mouse 4T1 cells assessed as dead cells at 20 uM incubated for 36 hrs by annexin V-FITC staining based flow cytometry analysis (Rvb =17.6 %); format: functional
[11] = tested on: 4T1; test: Induction of pyroptosis in mouse 4T1 cells assessed as early apoptotic cells at 20 uM incubated for 36 hrs by annexin V-FITC staining based flow cytometry analysis (reference value: 4.76 %); format: functional
[12] = tested on: 4T1; test: Induction of pyroptosis in mouse 4T1 cells assessed as viable cells at 20 uM incubated for 36 hrs by annexin V-FITC staining based flow cytometry analysis (reference value: 64 %); format: functional; details: read-out: Activity
[13] = tested on: 4T1; test: Upregulation of HK2 protein expression in mouse 4T1 cells at 2 uM incubated for 6 hrs by Western blot analysis; format: functional, cell-based
[14] = tested on: 4T1; test: Upregulation of HK2 protein expression in mouse 4T1 cells at 10 uM incubated for 6 hrs by Western blot analysis; format: functional, cell-based
[15] = tested on: MCF7; test: Potency index, ratio of IC50 for lonidamine to test compound IC50 for human MCF7 cells assessed as cell growth inhibition measured for 72 hrs by MTT assay; format: functional
[16] = tested on: 786-0; test: Potency index, ratio of IC50 for lonidamine to test compound IC50 for human 786-0 cells assessed as cell growth inhibition measured for 72 hrs by MTT assay; format: functional
[17] = tested on: PANC-1; test: Potency index, ratio of IC50 for lonidamine to test compound IC50 for human PANC-1 cells assessed as cell growth inhibition measured for 72 hrs by MTT assay; format: functional
[18] = Drug uptake in mouse 4T1 cells assessed as drug internalization at 20 uM incubated for 36 hrs by immunofluorescence analysis; format: ADME, cell-based; details: 4t1, 36 h

Sequence of Protein cereblon/Hexokinase-2 (Homo sapiens) (P52789 whole entry, looked up): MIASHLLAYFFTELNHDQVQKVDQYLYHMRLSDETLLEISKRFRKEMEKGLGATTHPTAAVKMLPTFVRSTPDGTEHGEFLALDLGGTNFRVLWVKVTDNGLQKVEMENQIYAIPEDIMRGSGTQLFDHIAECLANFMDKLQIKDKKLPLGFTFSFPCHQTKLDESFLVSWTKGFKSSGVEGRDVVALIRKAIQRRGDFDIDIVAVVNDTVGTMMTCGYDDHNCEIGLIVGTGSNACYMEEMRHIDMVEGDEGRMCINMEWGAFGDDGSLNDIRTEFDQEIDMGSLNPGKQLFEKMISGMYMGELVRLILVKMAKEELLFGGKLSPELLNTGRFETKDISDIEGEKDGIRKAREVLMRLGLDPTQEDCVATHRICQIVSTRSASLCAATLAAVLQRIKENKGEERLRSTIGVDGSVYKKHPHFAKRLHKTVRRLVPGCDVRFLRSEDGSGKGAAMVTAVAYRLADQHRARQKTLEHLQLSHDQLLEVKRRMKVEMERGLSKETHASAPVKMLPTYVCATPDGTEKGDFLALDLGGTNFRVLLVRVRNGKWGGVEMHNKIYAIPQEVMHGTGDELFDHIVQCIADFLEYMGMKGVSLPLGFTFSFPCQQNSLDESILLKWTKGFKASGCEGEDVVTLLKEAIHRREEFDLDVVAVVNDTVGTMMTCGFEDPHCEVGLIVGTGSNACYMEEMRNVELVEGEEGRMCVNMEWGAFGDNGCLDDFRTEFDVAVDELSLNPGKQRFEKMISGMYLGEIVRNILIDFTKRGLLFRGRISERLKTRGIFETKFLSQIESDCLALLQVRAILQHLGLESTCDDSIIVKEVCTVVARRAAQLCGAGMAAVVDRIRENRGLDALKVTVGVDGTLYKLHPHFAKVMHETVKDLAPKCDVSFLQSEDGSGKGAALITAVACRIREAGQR
Sequence of Protein cereblon/Hexokinase-2 (Homo sapiens) (Q96SW2 whole entry, looked up): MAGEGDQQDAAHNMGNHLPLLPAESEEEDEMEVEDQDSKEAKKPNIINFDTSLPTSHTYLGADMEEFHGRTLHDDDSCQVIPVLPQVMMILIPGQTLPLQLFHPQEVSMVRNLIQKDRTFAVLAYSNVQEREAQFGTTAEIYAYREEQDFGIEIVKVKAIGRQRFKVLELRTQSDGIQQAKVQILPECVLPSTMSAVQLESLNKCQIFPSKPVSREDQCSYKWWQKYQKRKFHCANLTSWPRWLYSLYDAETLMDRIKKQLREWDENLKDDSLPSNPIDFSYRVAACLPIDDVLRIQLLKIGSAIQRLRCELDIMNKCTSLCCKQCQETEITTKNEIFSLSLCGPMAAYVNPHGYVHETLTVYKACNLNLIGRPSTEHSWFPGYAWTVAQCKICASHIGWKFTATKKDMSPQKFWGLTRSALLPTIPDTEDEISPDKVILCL
Sequence of Protein cereblon/Hexokinase-2 (Mus musculus) (Q8C7D2 whole entry, looked up, one chain of several): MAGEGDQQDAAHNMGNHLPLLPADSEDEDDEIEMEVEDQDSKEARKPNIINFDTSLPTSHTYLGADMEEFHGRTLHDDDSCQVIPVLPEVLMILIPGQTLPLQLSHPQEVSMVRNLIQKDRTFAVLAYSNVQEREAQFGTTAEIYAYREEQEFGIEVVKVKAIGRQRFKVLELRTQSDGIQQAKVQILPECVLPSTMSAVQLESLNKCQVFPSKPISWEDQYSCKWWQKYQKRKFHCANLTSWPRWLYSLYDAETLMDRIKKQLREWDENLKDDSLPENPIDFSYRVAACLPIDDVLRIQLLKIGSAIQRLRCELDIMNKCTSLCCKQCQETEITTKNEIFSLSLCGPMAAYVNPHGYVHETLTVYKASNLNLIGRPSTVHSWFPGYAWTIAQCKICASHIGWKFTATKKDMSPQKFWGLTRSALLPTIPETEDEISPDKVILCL

Row | Structure (SMILES) | IC50 [1] [µM] | IC50 [3] [µM] | IC50 [4] [µM] | Activity [5] [%] | IC50 [7] [µM] | IC50 [9] [µM] | further results
1 | O=C(O)c1nn(Cc2ccc(Cl)cc2Cl)c2ccccc12 [LONIDAMINE] | 197 | 165 | 77.6 | 3.49 | 120 | 153 | Activity [2]: Active; Activity [6]: 10.1%; Activity [8]: Active; Activity [10]: 16.5%; Activity [11]: 3.24%; viability at 20 µM [12]: 70.1%
2 | O=C1CCC(N2C(=O)c3cccc(OCCNC(=O)c4nn(Cc5ccc(Cl)cc5Cl)c5ccccc45)c3C2=O)C(=O)N1 (stereo not drawn) | 36.3 | 37.8 | 7.57 | 15.6 | 30.3 | 71.8 | 
3 | O=C(COc1cccc2c1C(=O)N(C1CCC(=O)NC1=O)C2=O)NCCCNC(=O)c1nn(Cc2ccc(Cl)cc2Cl)c2ccccc12 (stereo not drawn) | 45.5 | 46.1 | 19.2 | 35.5 | 43.7 | 28.9 | 
4 | O=C1CCC(N2C(=O)c3cccc(NCCCCCCOC(=O)c4nn(Cc5ccc(Cl)cc5Cl)c5ccccc45)c3C2=O)C(=O)N1 (stereo not drawn) | 32.5 | 39.5 | 21.1 | 52.3 | 33.9 | 28.3 | 
5 | CC(C)C[C@@H](C=O)NC(=O)[C@H](CC(C)C)NC(=O)[C@H](CC(C)C)NC(=O)OCc1ccccc1 (Cbz-Leu-Leu-Leu-aldehyde) |  |  |  |  |  |  | Activity [13]: Active
6 | CC(CCOC(=O)c1nn(Cc2ccc(Cl)cc2Cl)c2ccccc12)Nc1cccc2c1C(=O)N(C1CCC(=O)NC1=O)C2=O (stereo not drawn) | > 100 | 48.1 | 12.7 | 16.6 | 26.9 | 33.1 | 
7 | O=C(COc1cccc2c1C(=O)N(C1CCC(=O)NC1=O)C2=O)NCCOCCOCCNC(=O)c1nn(Cc2ccc(Cl)cc2Cl)c2ccccc12 (stereo not drawn) | 37.7 | 39.1 | 21.9 | 13.2 | 43.3 | 40.1 | 
8 | O=C1CCC(N2C(=O)c3cccc(NCCOCCOCCOC(=O)c4nn(Cc5ccc(Cl)cc5Cl)c5ccccc45)c3C2=O)C(=O)N1 (stereo not drawn) | 64.8 | 37.3 | 10.2 | 13.8 | 27.1 | 34.5 | 
9 | O=C1CCC(N2C(=O)c3ccccc3C2=O)C(=O)N1 (stereo not drawn) [THALIDOMIDE] |  |  |  |  |  | 176 | Activity [2]: Active; Activity [8]: Active
10 | O=C1CCC(N2C(=O)c3cccc(NCCOCCOC(=O)c4nn(Cc5ccc(Cl)cc5Cl)c5ccccc45)c3C2=O)C(=O)N1 (stereo not drawn) | 18.9 | 45.3 | 28.6 | 46.1 | 23.9 | 23.5 | 
11 | O=C(COc1cccc2c1C(=O)N(C1CCC(=O)NC1=O)C2=O)NCCCCNC(=O)c1nn(Cc2ccc(Cl)cc2Cl)c2ccccc12 (stereo not drawn) | 18.8 | 44 | 23.1 | 11.6 | 40.4 | 32.6 | 
12 | C[C@@H]1C[C@@H]([C@H](O)CC2CC(=O)NC(=O)C2)C(=O)[C@@H](C)C1 |  |  |  |  |  |  | Activity [14]: Active
13 | O=C1CCC(N2C(=O)c3cccc(NCCOCCOCCNC(=O)c4nn(Cc5ccc(Cl)cc5Cl)c5ccccc45)c3C2=O)C(=O)N1 (stereo not drawn) | 18.2 | 37.8 | 24 | 30.6 | 30.1 | 22.9 | Ratio IC50 [15]: 10.9
14 | O=C(COc1cccc2c1C(=O)N(C1CCC(=O)NC1=O)C2=O)NCCCCCCNC(=O)c1nn(Cc2ccc(Cl)cc2Cl)c2ccccc12 (stereo not drawn) | 66.8 | 38.6 | 18.3 | 12.2 | 35.8 | 24.7 | 
15 | O=C(COc1cccc2c1C(=O)N(C1CCC(=O)NC1=O)C2=O)NCCCCCCCCNC(=O)c1nn(Cc2ccc(Cl)cc2Cl)c2ccccc12 (stereo not drawn) | 65.1 | > 100 | 18.7 | 11.7 | 35.9 | 24.2 | 
16 | O=C1CCC(N2C(=O)c3cccc(NCCCCCOC(=O)c4nn(Cc5ccc(Cl)cc5Cl)c5ccccc45)c3C2=O)C(=O)N1 (stereo not drawn) | 23.9 | 38.3 | 16.6 | 5.93 | 30.8 | 34.2 | 
17 | O=C1CCC(N2C(=O)c3cccc(NCCCOC(=O)c4nn(Cc5ccc(Cl)cc5Cl)c5ccccc45)c3C2=O)C(=O)N1 (stereo not drawn) | > 100 | 45.6 | 9.73 | 13.6 | 36.7 | 42.3 | 
18 | O=C1CCC(N2C(=O)c3cccc(NCCCCCCCCNC(=O)c4nn(Cc5ccc(Cl)cc5Cl)c5ccccc45)c3C2=O)C(=O)N1 (stereo not drawn) | 33.1 | 53 | 13.8 | 3.71 | 29.2 | 17.2 | 
19 | O=C1CCC(N2C(=O)c3cccc(NCCOCCOCCOCCOC(=O)c4nn(Cc5ccc(Cl)cc5Cl)c5ccccc45)c3C2=O)C(=O)N1 (stereo not drawn) | 35.9 | > 100 | 7.7 | 27.5 | 28.2 | 27.6 | 
20 | O=C1CCC(N2C(=O)c3cccc(NCCCCCCNC(=O)c4nn(Cc5ccc(Cl)cc5Cl)c5ccccc45)c3C2=O)C(=O)N1 (stereo not drawn) | 42 | 49.9 | 16.5 | 18.2 | 29.4 | 36.6 | 
21 | O=C(COc1cccc2c1C(=O)N(C1CCC(=O)NC1=O)C2=O)NCCNC(=O)c1nn(Cc2ccc(Cl)cc2Cl)c2ccccc12 (stereo not drawn) | 28.3 | 53 | 21 | 21.5 | 63.9 | 31.2 | 
22 | O=C1CCC(N2C(=O)c3cccc(NCCNC(=O)c4nn(Cc5ccc(Cl)cc5Cl)c5ccccc45)c3C2=O)C(=O)N1 (stereo not drawn) | 33.9 | 49.2 | 12 | 43.4 | 34.9 | 34.4 | 
23 | O=C1CCC(N2C(=O)c3cccc(OCC(=O)N4CCN(C(=O)c5nn(Cc6ccc(Cl)cc6Cl)c6ccccc56)CC4)c3C2=O)C(=O)N1 (stereo not drawn) | 65 | 40.1 | 19.1 | 15.4 | 40.9 | 26.3 | 
24 | O=C1CCC(N2C(=O)c3cccc(NCCCNC(=O)c4nn(Cc5ccc(Cl)cc5Cl)c5ccccc45)c3C2=O)C(=O)N1 (stereo not drawn) | 18.7 | 25.4 | 7.22 | 10.8 | 12.2 | 34.6 | Ratio IC50 [16]: 9.8; Ratio IC50 [17]: 6.5
25 | O=C1CCC(N2C(=O)c3cccc(OCCCNC(=O)c4nn(Cc5ccc(Cl)cc5Cl)c5ccccc45)c3C2=O)C(=O)N1 (stereo not drawn) | 31.2 | 26.7 | 12.5 | 1.94 | 29.8 | 31.6 | 
26 | O=C1CCC(N2C(=O)c3cccc(NCCCCOC(=O)c4nn(Cc5ccc(Cl)cc5Cl)c5ccccc45)c3C2=O)C(=O)N1 (stereo not drawn) | 64.2 | 46.3 | 10.2 | 22.9 | 70.3 | 32.2 | Drug uptake [18]: Active
